The source of these data is patent publication US5359063A, “Heterocyclene derivatives” (Imperial Chemical Industries PLC, priority 1990, dated 1994).

Molecules are shown by their SMILES.

For orientation: IC50 means the concentration at which inhibition is half-maximal. For orientation: ED50 means the dose at which the effect has come halfway, by size or by number of responders.

For assay [1], the system named is 5-LO. The assay can be described thus: Test b) LTB4 in heparinised human blood challenged with calcium ionophore A23187 (radioimmunoassay). The class given is cell-based. The procedure:
b) An in vitro assay system involving incubating a test compound with heparinised human blood, prior to challenge with the calcium ionophore A23187 and then indirectly measuring the inhibitory effects on 5-LO by assaying the amount of LTB4 using specific radioimmunoassays described by Carey and Forder (F. Carey and R. A. Forder, Prostaglandins, Leukotrienes Med., 1986, 22, 57; Prostaglandins, 1984, 28, 666; Brit. J. Pharmacol. 1985, 84, 34P) which involve the use of a protein-LTB4 conjugate produced using the procedure of Young et alia (Prostaglandins, 1983, 26(4), 605-613). The effects of a test compound on the enzyme cyclooxygenase (which is involved in the alternative metabolic pathway for arachidonic acid and gives rise to prostaglandins, thromboxanes and related metabolites) may be measured at the same time using the specific radioimmunoassay for thromboxane B2 (TxB2) described by Carey and Forder (see above). This test provides an indication of the effects of a test compound against 5-LO and also cyclooxygenase in the presence of blood cells and proteins. It permits the selectivity of the inhibitory effect on 5-LO or cyclooxygenase to be assessed.

The test system of assay [2] is 5-LO. The assay can be described thus: Test g) LTB4 liberation induced by zymosan within an air pouch in male rats. In kind it is in vivo. The settings on record: 3 h; test g), rat air pouch, oral. The procedure:
g) An in vivo system involving measuring the effects of a test compound administered orally against the liberation of LTB4 induced by zymosan within an air pouch generated within the subcutaneous tissue of the back of male rats. The rats are anaesthetised and air pouches are formed by the injection of sterile air (20 ml). A further injection of air (10 ml) is similarIv given after 3 days. At 6 days after the initial air injection the test compound is administered (usually orally as the suspension produced when a solution of the test compound in dimethylsulphoxide is added to hydroxypropylmethylcellulose), followed by the intrapouch injection of zymosan (1 ml of a 1% suspension in physiological saline). After 3 hours the rats are killed, the air pouches are lavaged with physiological saline, and the specific radioimmunoassay described above is used to assay LTB4 in the washings. This test provides an indication of inhibitory effects against 5-LO in an inflammatory milieu.

Turning to `COC1(c2ccc(Sc3ccc(C(C)(C)C)cc3)s2)CCOCC1` [4-[5-(4-tert-butylphenylthio)thien-2-yl]-4-methoxytetrahydropyran], the IC50 in the assay on 5-LO [1] stood at 0.15 µM. Also, the ED50 in the assay with 5-LO [2] is 1.5 mg/kg.
Consider `COC1(c2ccc(Sc3ccc4c(c3)CCC(=O)N4C)s2)CCOCC1` [4-methoxy-4-[5-(1-methyl-2-oxo-1,2,3,4-tetrahydroquinolin-6-ylthio)thien-2-yl]tetrahydropyran], for which, in the assay with 5-LO [1], the 50% inhibitory concentration (IC50) turned out to be 0.04 µM. Further, in the assay with 5-LO [2], the median effective dose (ED50) is less than 1.5 mg/kg.
